Laboratory results: US7241793B2, “Phenyloxyalkanonic acid derivatives as hPPAR activators” (SmithKline Beecham Corporation, priority 2002, dated 2007)

Row | SMILES | melting point [°C]
1 | Cc1cc(CN(Cc2ccsc2)c2sc(-c3ccc(C(F)(F)F)cc3)nc2C)cc(C)c1OC(C)(C)C(=O)O [Example 2, 2-[2,6-Dimethyl-4-({[4-methyl-2-(4-trifluoromethyl-phenyl)-thiazol-5-yl]-thiophen-3-ylmethyl-amino}-methyl)-phenoxy]-2-methyl-propionic acid] | 90 to 100
2 | Cc1cc(CN(C)c2cc(-c3ccc(Cl)cc3)nn2C)cc(C)c1OC(C)(C)C(=O)O [Example 6, 2-[4-({[5-(4-Chloro-phenyl)-2-methyl-2H-pyrazol-3-yl]-methyl-amino}-methyl)-2,6-dimethyl-phenoxy]-2-methyl-propionic acid] | 158
3 | Cc1cc(CN(Cc2ccc(F)cc2)c2cc(-c3ccc(C(F)(F)F)cc3)nn2C)cc(C)c1OC(C)(C)C(=O)O [Example 14, 2-[4-({(4-Fluoro-benzyl)-[2-methyl-5-(4-trifluoromethyl-phenyl)-2H-pyrazol-3-yl]-amino}-methyl)-2,6-dimethyl-phenoxy]-2-methyl-propionic acid] | > 90
4 | Cc1cc(CN(Cc2cccs2)c2sc(-c3ccc(C(F)(F)F)cc3)nc2C)ccc1OC(C)(C)C(=O)O [Example 91, 2-Methyl-2-(2-methyl-4-{([4-methyl-2-(4-trifluoromethylphenyl)thiazol-5-yl-]thiophen-2-ylmethylamino)methyl}phenoxy)propionic acid] | 100
5 | Cc1cc(CN(Cc2ccco2)c2sc(-c3ccc(C(F)(F)F)cc3)nc2C)ccc1OC(C)(C)C(=O)O [Example 93, 2-Methyl-2-(2-methyl-4-{([4-methyl-2-(4-trifluoromethylphenyl)thiazol-5-yl]furan-2-ylmethylamino)methyl}phenoxy)propionic acid] | 80
